Experiments:
Format in all cases: cell-based, human
control beta cells [1] = assay: UPR, insulin and proinsulin content and ER morphology in control beta cells
Protocol: (§1) Human ES or iPS cells were dissociated by Dispase (3-5 mins) and Accutase (5 mins, Sigma). Cells were suspended in human ES medium containing 10 μM Y27632, a ROCK inhibitor, and filtered through a 70 μm cell strainer. Then cells were seeded at a density of 800,000 cells/well in 12-well plates. After 1 or 2 days, when cells reached 80-90% confluence, differentiation was started. On Day 1: cells were briefly washed once with RPMI medium, then were treated with Activin A (100 ng/ml), Wnt3A (25 ng/ml) and 0.075 mM EGTA in RPMI medium. On day 2-3: cells were treated with Activin A (100 ng/ml) and 0.2% FBS in RPMI medium. On day 4-5: cells were treated with FGF10 (50 ng/ml), KAAD-cyclopamine (0.25 μM) and 2% FBS in RPMI medium. On day 6-8: cells were treated with FGF10 (50 ng/ml), KAAD-cyclopamine ([…] (2 μM) and LDN-193189 (250 nM), B27 in DMEM medium. On day 9-10: cells were treated with exendin-4 (50 ng/ml), SB431542 (2 μM) and B27 in CMRL medium. On day 11-12, cells were treated with T4 (thyroid hormone, 0.02 nM) and B27 in CMRL medium. After day 12, cells were incubated in CMRL medium with B27. Cells were analyzed between day 14 and day 16.
Wolfram and control iPSCs or fibroblasts were incubated with indicated dosages of thapsigargin (TG) or tunicamycin (TM) (Both were from Sigma) for 6 hours after an overnight starvation. 1 mM Sodium 4-phenylbutyrate (4PBA) (EMD Chemicals Inc.) was administrated one hour prior to and through TG or TM treatment. Cells were harvested and subjected to RNA and protein analysis. In vitro differentiated beta cells were treated with 10 nM TG for 12 hours, or 0.5 μg/ml TM for 6 hours with or without 1 mM 4PBA treatment one hour prior to and through TG or TM treatment. […] GRP78 protein level was determined by western blot using mouse-anti GRP78 antibody (Santa Cruz, sc-166490).
(§2) To determine Insulin or proinsulin content within the cell, differentiated cells were collected and lysed by M-PER protein extraction reagent (Thermo Scientific). Proinsulin and insulin contents were measured by using human proinsulin and insulin ELISA kits (Mercodia). Quantification of positively stained cells was analyzed using Celigo Cytometer system (Cyntellect), and flow cytometry analysis. To normalize insulin content to beta cell number, cultures were dissociated to single cells, and divided into three fractions: 20% of cells for cell number quantification, 40% for RNA analysis and 40% for ELISA assay to determine insulin content.
Differentiated beta cells were treated with or without 10 nM TG for 12 hours, and then fixed in 2.5% glutaraldehyde in 0.1 M Sorenson's buffer (pH 7.2) for one hour. […] The number of granules was determined using ImageJ software.

Wolfram beta cells [2] = assay: UPR, insulin and proinsulin content and ER morphology in Wolfram beta cells
Protocol: as §1
(§3) Wolfram and control iPSCs or fibroblasts were incubated with indicated dosages of thapsigargin (TG) or tunicamycin (TM) (Both were from Sigma) for 6 hours after an overnight starvation. 1 mM Sodium 4-phenylbutyrate (4PBA) (EMD Chemicals Inc.) was administrated one hour prior to and through TG or TM treatment. Cells were harvested and subjected to RNA and protein analysis. In vitro differentiated beta cells were treated with 10 nM TG for 12 hours, or 0.5 μg/ml TM for 6 hours with or without 1 mM 4PBA treatment one hour prior to and through TG or TM treatment. For long-term 4PBA treatment, cells were incubated with 1 mM 4PBA starting on day 9 of differentiation, when cells reached pancreatic endoderm stage, and maintained until day 15. Then cells were subjected to insulin secretion, RNA and protein analysis. RNA was isolated using RNAeasy plus kit (Qiagen). cDNA was generated by using RT kit (Promega). Primers for PCR analysis were as follows: XBP-1 for gel-imaging (Lee, Won et al.) forward 5′ […] 3′ (SEQ ID NO:1), reverse 5′ […] 3′ (SEQ ID NO:2); sXBP-1 for QPCR (Merquiol, Uzi et al. 2011) forward 5′ CTGAGTCCGCAGCAGGTG 3′(SEQ ID NO:3), reverse 5′ […] 3′ (SEQ ID NO:4); GRP78 forward 5′ […] 3′(SEQ ID NO:5), reverse 5′ […] 3′ (SEQ ID NO:6); Insulin forward 5′ […] 3′(SEQ ID NO:7), reverse 5′ CAATGCCACGCTTCTGC 3′(SEQ ID NO:8). GRP78 protein level was determined by western blot using mouse-anti GRP78 antibody (Santa Cruz, sc-166490).
as §2
Differentiated beta cells were treated with or without 10 nM TG for 12 hours, and then fixed in 2.5% glutaraldehyde in 0.1 M Sorenson's buffer (pH 7.2) for one hour. Samples were processed and imaged by Dignostic Service, Department of Pathology and Cell Biology, Columbia University. Secretory granule structure and endoplasmic reticulum (ER) morphology were visually recognized. The number of granules was determined using ImageJ software.

Wolfram iPS cells = assay: Unfolded protein response (UPR) analysis, Wolfram iPS cells and fibroblasts
Protocol: as §3

control beta cells [3] = assay: In vitro insulin and glucagon secretion assay, control beta cells
Protocol: as §3
(§4) Cells were cultured in 12-well dishes. After 14 days of differentiation, cells were washed for 1 hour in CMRL medium, then incubated in 300 μl CMRL medium containing 5.6 mM glucose for 1 hour and the medium was collected. After that, 300 μl CMRL medium containing 16.9 mM glucose, or 15 mM arginine, or 30 mM potassium, or 1 mM DBcAMP+16.9 mM glucose was used to treat cells for 1 hour and then the medium was collected. Human C-peptide concentration in the medium was measured by ultra-sensitive human C-peptide ELISA kit according to manufacturer's instructions (Mercodia). Glucagon levels in medium were measured by using Glucagon ELISA kit (ALPCO Diagnostics).

Wolfram beta cells [4] = assay: In vitro insulin and glucagon secretion assay, Wolfram beta cells
Protocol: as §3, §4

control iPS cells = assay: Unfolded protein response (UPR) analysis, control iPS cells; settings: 10 nM TG, 6 hour
Protocol: as §3, with “3′(SEQ ID NO:7), reverse 5′ CAATGCCACGCTTCTGC 3′(SEQ ID NO:8).” left out

[5] = system: GCK mutant iPS-derived beta-like cells; assay: Insulin (C-peptide) secretion assay in vitro, GCK mutant beta-like cells; settings: 1 hour, identical to control cells
Protocol: Typically, cells were cultured in 12-well dishes. After 12 days of differentiation, cells were washed for 1 hour in CMRL medium. Cells were then incubated in 300 μl CMRL medium containing 5.6 mM glucose for 1 hour and the medium was collected. Subsequently, 300 μl CMRL medium containing 16.9 mM glucose or other secretagogues was used to treat cells for 1 hour, following which the medium was collected. For in vivo tests, mice were deprived of food overnight with ad libitium access to water. After 12-14 hours of fasting, capillary blood glucose concentrations were determined by tail vein bleed using an AlphaTRACK glucometer (Abbott). Venous blood samples were collected via the submandibular vein. Intraperitoneal glucose was then administered (1 mg/g body weight) and ½ hour later blood samples were obtained via the submandibular vein. Blood samples were kept at room temperature for 2 hours and serum was obtained by centrifuging blood samples at 4000 rpm for 15 min. C-peptide concentrations in medium or mouse serum were measure using an ultrasensitive human C-peptide ELISA kit according to manufacturer's instructions (Mercodia). […]
Typically, cells were cultured in 12-well dishes. […] After 12-14 hours of fasting, capillary blood glucose concentrations were determined by tail bleed using an AlphaTRACK glucometer (Abbott). […]

[6] = Wolfram beta cells, TG 10 nM, 12 hours
[7] = control cells, arginine stimulation, TG treatment

## C/C=C(/C)C(=O)O[C@H]1C(C)=C2[C@H]([C@@H]1OC(=O)CCCCCCC)[C@@](C)(OC(C)=O)C[C@H](OC(=O)CCC)[C@@]1(O)[C@H]2OC(=O)[C@@]1(C)O [TG, thapsigargin]
Control beta cells [1]; control beta cells challenged with TG, ~0.47 without TG
  proinsulin to insulin ratio: 0.51
Control beta cells [1]; control cells, 12 hours of 10 nM TG
  ER morphology (TEM): remained unaffected
Control beta cells [1]; control cells, TG 10 nM, 12 hours
  production of insulin: unaffected
Wolfram beta cells [2]; Wolfram beta cells challenged with TG, ~0.55 without TG
  proinsulin to insulin ratio: 0.73
Wolfram beta cells [2]; Wolfram beta cells, 12 hours of 10 nM TG
  ER morphology (TEM): greatly dilated
Wolfram beta cells [2]; [6]
  reduction of insulin production at the mRNA level: 46%
  reduction of insulin production at the protein level: 31%
Wolfram iPS cells; Wolfram cells, 10 nM TG, 6 hour
  increase of GRP78 mRNA: 4 fold
Wolfram iPS cells; stem cells, increasing concentration of TG, 6 hours
  GRP78 mRNA level: dose-dependent increase
Control beta cells [3]; TG treated control beta cells (10 nM, 12 hour)
  increase of insulin output in response to 16.9 mM glucose: 1.6 fold
Control beta cells [3]; [7]
  reduction of stimulated glucagon secretion: 28%
  reduction of stimulated insulin secretion: −3%
Wolfram beta cells [4]; TG treated Wolfram cells (10 nM, 12 hour)
  insulin secretion in response to 16.9 mM glucose: failed to increase insulin secretion
Wolfram beta cells [4]; WFS1 cells, arginine stimulation, TG treatment
  reduction of stimulated glucagon secretion: 24%
Wolfram beta cells [4]; WFS1 mutant cells, arginine stimulation, TG treatment
  reduction of stimulated insulin secretion: 43%
Wolfram beta cells [4]; Wolfram beta cells treated with TG, 2.6 without TG
  response to DBcAMP (C-peptide secretion): 1.2 fold
Wolfram beta cells [4]; Wolfram beta cells treated with TG, 3.9 without TG
  insulin-secretion in response to potassium: 2.2 fold
Wolfram beta cells [4]; Wolfram beta cells treated with TG, 4.0 without TG
  fold increase of C-peptide in the medium in response to arginine: 2.3 fold
Control iPS cells
  increase of GRP78 mRNA: 2 fold

## COC(=O)C1=C(C)NC(C)=C([N+](=O)[O-])C1c1ccccc1C(F)(F)F (stereo not drawn) [Bay K8644]
[5]; GCK^G299R/+ and GCK^G299R/hygro cells
  increase in C-peptide release: 3-5 fold
[5]; GCK^G299R/+ cells
  increase in C-peptide release: 5 fold

From patent US20180237751A1, “METHOD FOR GENERATING BETA CELLS” (THE TRUSTEES OF COLUMBIA UNIVERSITY IN THE CITY OF NEW YORK, priority 2011, published 2018)
